What follows are compounds tested on tumor endothelial cells (LL/2 lung cancer tumor) (assay: Lung LL2 ex vivo model of tumor angiogenesis). Settings: Lung LL2 ex vivo; Conc. 40 μm; drug treatment two days.
Type: cell-based, mouse
Experimental: This example describes a procedure to prepare a primary tumor angiogenesis model for assessing the efficacy of anti-cancer candidate agents.
1. The day before the experiment, spray all necessary tools with 70% ethanol and sterilize them under UV light overnight, including blade, dissecting and micro-dissecting scissors and […]. Place 24-well dishes at 4° C. to pre-chill plates and thaw Matrigel 24 hours before tumor dissection.
2. Spray 70% ethanol on working bench. Prepare two sterile petri dishes with 10 mL sterile PBS. Steps 3 and 4 are for mouse tumor models. For fresh human tumor, directly go to step 5.
3. Euthanize the tumor-bearing mice. Spray 70% ethanol on the mouse and remove the tumor using sterilized dissecting tools (avoid the fur). Rinse the tumor in petri dish with sterile PBS to remove ethanol and fur. Transfer the tumor to a new petri dish with PBS for dissection. Place the dish on ice.
4. Using pre-chilled sterile pipet tips to seed regular Matrigel in 24 well plates on ice. Matrigel (30 μL) is dropped in the middle of each well without touching the edge of the well (avoid introducing bubbles if possible).
5. Cut the tumor in halves using the sterile blade. Identify and isolate healthy tumor tissue that is not necrotic and is within the tumor capsule. Cut the healthy tumor tissue into small pieces. For instance, a suitable size for the tumor tissue is 0.5 mm (H)×0.5 mm (L)×0.3 mm (D) with a total volume of 0.075 mm^3.
6. Gently transfer and embed each tumor piece in the Matrigel drop in the 24-well plate. Place the embedded piece in the bottom and middle of each Matrigel drop. Keep the plate on ice all the time.
7. After seeding the tumor pieces, plates are incubated in a 37° C. cell culture incubator without medium for 10 minutes in order for the Matrigel to solidify.
8. Endothelial Growth Medium (0.5 mL) is added to each well and incubated at 37° C. with 5% CO2. Wait until the new endothelial cells have grown out of the tumor or are larger than 3 mm in diameter until treatment. This usually takes 4 days for the LL2 Lewis lung cancer model and 7 days for the CT26 colon cancer model. For human tumor models, the growth time is typically 2-3 weeks, depending on the tumor type. Media is changed every 4 days during prolonged culture. Typically, when the tumor tissue grows to 2 mm in diameter, it is good for drug testing. A size of about 3 mm in diameter can make visualization easier.
9. When the assay is ready to be analyzed for cell death (e.g., 48 hours after drug addition), prepare the dye mixture by mixing 6 μL of green dye to stain live cells (5 mg/mL Fluorescein diacetate or FDA in DMSO) with 30 μL of red dye (2.5 mg/mL Propidium iodide or PI in PBS) to stain dead cells in an Eppendorf tube. The FDA dye needs to be stored frozen in a −20° C. freezer because it has a labile ester bond.
10. Add 1 μL of the dye mixture to each well of the 24-well dish. It is usually performed one 24-well dish at a time given the amount of time needed to take pictures (the green dye is not as stable in the cells in the long term).
11. Gently rock the dish a few times to mix the dye with the media in the wells and incubate the dish at 37° C. for 10 min (too long incubation can make the green signal too intense).
12. Wash each well with 0.5 mL of sterile PBS and then add 0.5 mL of phenol red free SFM to each well. Alternatively 0.5 mL of regular Endothelial Cell Growth Media can be added to each well if this well needs to be continuously maintained after the experiment.
13. Look through all wells on an inverted microscope using the 2× objective lens to observe morphological changes.
14. Taking pictures in the red and green channels would allow not only the recording of the result but also more accurate quantitation of the result. To take pictures for all the wells, first pick a well that has robust red and green signals. […]

With `CCCCOc1ccc(S(=O)(=O)c2cnc3ccc(SC)cc3c2N2CCC(N3CCN(CCO)CC3)CC2)cc1` [compound 230, 2-(4-(1-(3-((4-butoxyphenyl)sulfonyl)-6-(methylthio)quinolin-4-yl)piperidin-4-yl)piperazin-1-yl)ethan-1-ol] the Cell death was 100%.

Same assay, conditions: Mus musculus, Endothelial cell, 48 h, read-out: Cell death

In order of rising cytotoxicity at 40 µM:
1. COc1ccc(S(=O)(=O)c2cnc3ccc(S(C)(=O)=O)cc3c2NN2CCN(C)CC2)cc1 [compound 228, 3-((4-methoxyphenyl)sulfonyl)-N-(4-methylpiperazin-1-yl)-6-(methylsulfonyl)quinolin-4-amine]  5%
2. CCCCOc1ccc(S(=O)(=O)c2cnc3ccc(SC)cc3c2N2CCC(N3CCN(c4ccc(F)cc4)CC3)CC2)cc1 [compound 233, 3-((4-butoxyphenyl)sulfonyl)-4-(4-(4-(4-fluorophenyl)piperazin-1-yl)piperidin-1-yl)-6-(methylthio)quinoline]  5%
3. CCCCOc1ccc(S(=O)(=O)c2cnc3ccc([S+](C)[O-])cc3c2N2CCC(N3CCN(CCO)CC3)CC2)cc1 (stereo not shown) [compound 236, 2-(4-(1-(3-((4-butoxyphenyl)sulfonyl)-6-(methylsulfinyl)quinolin-4-yl)piperidin-4-yl)piperazin-1-yl)ethan-1-ol]  5%
4. COc1ccc(S(=O)(=O)c2cnc3ccc(SC)cc3c2NN2CCN(C)CC2)cc1 [compound 226, 3-((4-methoxyphenyl)sulfonyl)-N-(4-methylpiperazin-1-yl)-6-(methylthio)quinolin-4-amine]  10%
5. COc1ccc(S(=O)(=O)c2cnc3ccc([S+](C)[O-])cc3c2NN2CCN(C)CC2)cc1 (stereo not shown) [compound 227, 3-((4-methoxyphenyl)sulfonyl)-N-(4-methylpiperazin-1-yl)-6-(methylsulfinyl)quinolin-4-amine]  10%
6. CCCCOc1ccc(S(=O)(=O)c2cnc3ccc(SC)cc3c2N2CCC(N3CCC(O)(c4ccccc4)CC3)CC2)cc1 [compound 232, 1′-(3-((4-butoxyphenyl)sulfonyl)-6-(methylthio)quinolin-4-yl)-4-phenyl-[1,4′-bipiperidin]-4-ol]  10%
7. CCCCOc1ccc(S(=O)(=O)c2cnc3ccc([S+](C)[O-])cc3c2N2CCC(N3CCOCC3)CC2)cc1 (stereo not shown) [compound 235, 4-(1-(3-((4-butoxyphenyl)sulfonyl)-6-(methylsulfinyl)quinolin-4-yl)piperidin-4-yl)morpholine]  10%
8. CCCCOc1ccc(S(=O)(=O)c2cnc3ccc(SC)cc3c2N2CCC(N3CCSCC3)CC2)cc1 [compound 243, 4-(1-(3-((4-butoxyphenyl)sulfonyl)-6-(methylthio)quinolin-4-yl)piperidin-4-yl)thiomorpholine]  20%
9. CCCCOc1ccc(S(=O)(=O)c2cnc3ccc(SC)cc3c2N2CCC(N3CCOCC3)CC2)cc1 [compound 229, 4-(1-(3-((4-butoxyphenyl)sulfonyl)-6-(methylthio)quinolin-4-yl)piperidin-4-yl)morpholine]  30%
10. CCCCOc1ccc(S(=O)(=O)c2cnc3ccc([S+](C)[O-])cc3c2N2CCC(N3CCC(CO)CC3)CC2)cc1 (stereo not shown) [compound 240, (1′-(3-((4-butoxyphenyl)sulfonyl)-6-(methylsulfinyl)quinolin-4-yl)-[1,4′-bipiperidin]-4-yl)methanol]  30%
11. CCN(CC)CCOc1ccc(S(=O)(=O)c2cnc3ccc(SC)cc3c2N2CCCN(C)CC2)cc1 [compound 242, N,N-diethyl-2-(4-((4-(4-methyl-1,4-diazepan-1-yl)-6-(methylthio)quinolin-3-yl)sulfonyl)phenoxy)ethan-1-amine]  30%
12. CCOC(=O)c1ccc2ncc(S(=O)(=O)c3ccc(OC)cc3)c(NN3CCN(C)CC3)c2c1 [compound 225, ethyl 3-((4-methoxyphenyl)sulfonyl)-4-((4-methylpiperazin-1-yl)amino)quinoline-6-carboxylate]  40%
13. CCCCOc1ccc(S(=O)(=O)c2cnc3ccc([S+](C)[O-])cc3c2N2CCC(N3CCN(c4ccc(F)cc4)CC3)CC2)cc1 (stereo not shown) [compound 239, 3-((4-butoxyphenyl)sulfonyl)-4-(4-(4-(4-fluorophenyl)piperazin-1-yl)piperidin-1-yl)-6-(methylsulfinyl)quinoline]  40%
14. CCCCOc1ccc(S(=O)(=O)c2cnc3ccc([S+](C)[O-])cc3c2N2CCC(N3CCSCC3)CC2)cc1 (stereo not shown) [compound 245, 4-(1-(3-((4-butoxyphenyl)sulfonyl)-6-(methylsulfinyl)quinolin-4-yl)piperidin-4-yl)thiomorpholine]  40%
15. CCCCOc1ccc(S(=O)(=O)c2cnc3ccc(SC)cc3c2N2CCC(N3CCC(N4CCCCC4)CC3)CC2)cc1 [compound 231, 4-([1,4′:1′,4″-terpiperidin]-1″-yl)-3-((4-butoxyphenyl)sulfonyl)-6-(methylthio)quinoline]  100%
16. CCCCOc1ccc(S(=O)(=O)c2cnc3ccc(SC)cc3c2N2CCC(N3CCCN(C)CC3)CC2)cc1 [compound 234, 3-((4-butoxyphenyl)sulfonyl)-4-(4-(4-methyl-1,4-diazepan-1-yl)piperidin-1-yl)-6-(methylthio)quinoline]  100%
17. CCCCOc1ccc(S(=O)(=O)c2cnc3ccc([S+](C)[O-])cc3c2N2CCC(N3CCC(N4CCCCC4)CC3)CC2)cc1 (stereo not shown) [compound 237, 4-([1,4′:1′,4″-terpiperidin]-1″-yl)-3-((4-butoxyphenyl)sulfonyl)-6-(methylsulfinyl)quinoline]  100%

In order of rising cytotoxicity at 20 µM:
1. CCCCCCCOc1ccc(S(=O)(=O)c2cnc3ccc(SC)cc3c2N2CCC(N3CCCC(O)C3)CC2)cc1 (stereo not shown) [compound 247, 1′-(3-((4-(heptyloxy)phenyl)sulfonyl)-6-(methylthio)quinolin-4-yl)-[1,4′-bipiperidin]-3-ol]  60%
2. CCCCCCCOc1ccc(S(=O)(=O)c2cnc3ccc(SC)cc3c2N2CCCN(CCN3CCCCC3)CC2)cc1 [compound 248, 3-((4-(heptyloxy)phenyl)sulfonyl)-6-(methylthio)-4-(4-(2-(piperidin-1-yl)ethyl)-1,4-diazepan-1-yl)quinoline]  60%
3. CCCCCCCOc1ccc(S(=O)(=O)c2cnc3ccc(SC)cc3c2N2CCC(N3CCCN(C)CC3)CC2)cc1 [compound 249, 3-((4-(heptyloxy)phenyl)sulfonyl)-4-(4-(4-methyl-1,4-diazepan-1-yl)piperidin-1-yl)-6-(methylthio)quinoline]  60%
4. CCCCCCCOc1ccc(S(=O)(=O)c2cnc3ccc(SC)cc3c2N2CCC(N3CCC(N4CCCCC4)CC3)CC2)cc1 [compound 251, 4-([1,4′:1′,4″-terpiperidin]-1″-yl)-3-((4-(heptyloxy)phenyl)sulfonyl)-6-(methylthio)quinoline]  60%
5. CCCCCCCOc1ccc(S(=O)(=O)c2cnc3ccc(SC)cc3c2N2CCC(N3CCN(CCO)CC3)CC2)cc1 [compound 250, 2-(4-(1-(3-((4-(heptyloxy)phenyl)sulfonyl)-6-(methylthio)quinolin-4-yl)piperidin-4-yl)piperazin-1-yl)ethan-1-ol]  90%
6. CCCCCCCOc1ccc(S(=O)(=O)c2cnc3ccc(SC)cc3c2N2CCC(N3CCN(C)CC3)CC2)cc1 [compound 246, 3-((4-(heptyloxy)phenyl)sulfonyl)-4-(4-(4-methylpiperazin-1-yl)piperidin-1-yl)-6-(methylthio)quinoline]  95%

With `CCCCCCCOc1ccc(S(=O)(=O)c2cnc3ccc(SC)cc3c2N2CCC(N3CCC(O)(c4ccccc4)CC3)CC2)cc1` [compound 262, 1′-(3-((4-(heptyloxy)phenyl)sulfonyl)-6-(methylthio)quinolin-4-yl)-4-phenyl-[1,4′-bipiperidin]-4-ol] the cytotoxicity at 10 µM was 20%.

Reference: US11884647B2, “Compounds and methods for targeting pathogenic blood vessels” (THE REGENTS OF THE UNIVERSITY OF CALIFORNIA, priority 2019, dated 2024)
